From patent US20050118224A1, “Edible pesticidal formulations” (priority 2001, published 2005) come the findings set out here.

The data set in a line: Chlorpyrifos loss from liquid blends with oleophilic phase candidates, 70° C. for 70 h. Type of data set: physicochemical. The note with it: 1.2 g chlorpyrifos in 9 g candidate, on aluminium foil. As to the method: 1.2 g of chlorpyrifos was added to 9 g of each alternative oleophilic candidate (see Table 14). 1.02 g of this liquid blend was then placed onto aluminium foil within a glass Petrie dish. The control was molten chlorpyrifos alone. Samples were then placed in a fan forced oven at 70° C. for 70 h before being removed and analysed for chlorpyrifos content.

Turning to `CCOP(=S)(OCC)Oc1nc(Cl)c(Cl)cc1Cl` [No oleophilic phase, chlorpyrifos], the “Chlorpyrifos loss (%)” value is given as 37%.
